Test results from PMC11740144 (ACS Omega, 2024).

Experiments:
VeroE6 host cells = conditions: cited from earlier work
SARS-CoV-2 [1] = conditions: VeroE6 host cells; read-out: EC50 of inhibiting SARS-CoV-2 entry into VeroE6 host cells; cited from earlier work
Furin = Furin (Homo sapiens, UniProt P09958); assay: Inhibition of human protease Furin (data not shown); assay type: biochemical
TMPRSS2 = TMPRSS2 (Homo sapiens, UniProt O15393); assay: Inhibition of human protease TMPRSS2 (data not shown); assay type: biochemical
Sequence of TMPRSS2 (O15393 whole entry): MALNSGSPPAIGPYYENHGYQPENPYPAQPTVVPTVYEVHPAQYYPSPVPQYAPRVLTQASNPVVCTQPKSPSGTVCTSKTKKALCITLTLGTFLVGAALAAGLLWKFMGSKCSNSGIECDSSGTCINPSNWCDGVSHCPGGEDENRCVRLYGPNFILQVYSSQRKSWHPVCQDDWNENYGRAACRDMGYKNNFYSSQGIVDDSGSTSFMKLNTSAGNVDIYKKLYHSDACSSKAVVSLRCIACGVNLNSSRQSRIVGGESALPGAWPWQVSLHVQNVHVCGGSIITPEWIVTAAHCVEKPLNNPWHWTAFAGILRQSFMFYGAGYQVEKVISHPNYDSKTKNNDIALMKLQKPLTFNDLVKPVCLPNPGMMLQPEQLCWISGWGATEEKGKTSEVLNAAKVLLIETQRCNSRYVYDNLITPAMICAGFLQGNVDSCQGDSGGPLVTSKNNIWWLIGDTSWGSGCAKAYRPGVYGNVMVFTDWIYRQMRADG

Cathepsin L = Cathepsin L (Homo sapiens, UniProt P07711); assay: Inhibition of human protease Cathepsin L (data not shown); assay type: biochemical
Sequence of Cathepsin L (P07711 114-333): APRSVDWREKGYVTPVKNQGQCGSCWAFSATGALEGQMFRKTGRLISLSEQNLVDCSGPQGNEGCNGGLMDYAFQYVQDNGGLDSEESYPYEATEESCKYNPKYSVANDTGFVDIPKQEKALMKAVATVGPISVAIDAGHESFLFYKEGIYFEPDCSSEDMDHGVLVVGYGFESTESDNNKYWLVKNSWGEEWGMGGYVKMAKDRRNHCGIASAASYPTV

SARS-CoV-2 [2] = assay type: cell-based
RBD:ACE2 interaction = RBD:ACE2 interaction (Severe acute respiratory syndrome coronavirus 2, UniProt P0DTC2); assay: RBD:ACE2 interaction inhibition, NanoBiT kit (Promega); parameters: species or system delta SARS-CoV-2 RBD / human ACE2; conditions: RBD from delta SARS-CoV-2, triplicate; read-out: IC50 of RBD:ACE2 binding inhibition
[3] = system: SARS-CoV-2 delta virus (NTU92); assay: Plaque reduction assay, entry treatment (compound preincubated with the virus); assay type: cell-based; conditions: Severe acute respiratory syndrome coronavirus 2, Vero C1008, VeroE6 cells, triplicate, read-out: EC50 against delta SARS-CoV-2 infecting VeroE6 cells
[4] = Cytotoxicity by acid phosphatase assay; assay type: cell-based; conditions: African green monkey; VeroE6 cells, 3 days incubation
Protocol: Cytotoxicity of the inhibitors was determined by using acid phosphatase assay. Briefly, VeroE6 cells were seeded onto a 96-well culture plate at a concentration of 2 × 10^4 cells per well. Next day, the medium was removed, and each well was washed once with PBS before adding DMEM containing 2% FBS and different concentrations of an inhibitor. Next, DMEM containing 2 μg/mL TPCK-trypsin was added. After 1 h of incubation at 37 °C, the medium was removed, and cells were washed by PBS. Then, DMEM containing 2% FBS and different concentrations of an antiviral was added. After 3 days of incubation at 37 °C, the medium was removed, and each well was washed once with PBS. Next, buffer containing 0.1 M sodium acetate (pH = 5.0), 0.1% Triton X-100, and 5 mM p-nitrophenyl phosphate was added. After the mixture was incubated at 37 °C for 2 h, 1 N NaOH was added to stop the reaction. The absorbance was then determined by an ELISA reader (VERSAmax, Molecular Devices, Sunnyvale, CA) at a wavelength of 405 nm. The percentage of cytotoxicity was calculated using the following formula: cytotoxicity % = [1 – (At/As) × 100]%, where At and As refer to the absorbance of a tested substance and solvent control, respectively. The 50% cytotoxicity concentration (CC50) was defined as the concentration reducing 50% of cell viability. […]

Sequence of Furin (P09958 108-794): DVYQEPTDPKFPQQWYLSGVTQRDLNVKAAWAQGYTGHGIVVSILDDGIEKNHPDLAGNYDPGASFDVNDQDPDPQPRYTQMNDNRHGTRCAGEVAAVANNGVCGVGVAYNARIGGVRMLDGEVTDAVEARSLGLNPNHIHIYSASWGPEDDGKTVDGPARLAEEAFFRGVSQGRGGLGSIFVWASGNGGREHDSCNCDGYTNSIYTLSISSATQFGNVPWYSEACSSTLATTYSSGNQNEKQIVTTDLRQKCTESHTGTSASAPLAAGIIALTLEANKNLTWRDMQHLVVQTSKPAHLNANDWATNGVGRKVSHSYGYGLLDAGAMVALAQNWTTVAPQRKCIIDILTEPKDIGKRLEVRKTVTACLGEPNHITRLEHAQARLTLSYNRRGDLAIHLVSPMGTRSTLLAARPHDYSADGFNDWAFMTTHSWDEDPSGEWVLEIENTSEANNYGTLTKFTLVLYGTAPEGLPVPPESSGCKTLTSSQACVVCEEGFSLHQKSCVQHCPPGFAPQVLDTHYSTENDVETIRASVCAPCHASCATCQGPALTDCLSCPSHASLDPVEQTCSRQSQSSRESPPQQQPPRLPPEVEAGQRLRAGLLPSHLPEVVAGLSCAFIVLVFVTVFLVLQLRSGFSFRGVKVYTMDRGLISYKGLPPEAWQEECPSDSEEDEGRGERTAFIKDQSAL

| Compound | CC50 (VeroE6 host cells) [µM] | EC50 (SARS-CoV-2 [1]) [µM] | inhibition of Furin (Furin) | inhibition of TMPRSS2 (TMPRSS2) | inhibition of Cathepsin L (Cathepsin L) | anti-SARS-CoV-2 activity under the postentry treatment (SARS-CoV-2 [2]) | IC50 (RBD:ACE2 interaction) [µM] | EC50 [3] [µM] | CC50 at 3 days [4] [µM] |
| --- | --- | --- | --- | --- | --- | --- | --- | --- | --- |
| berbamine hydrochloride | 66.9 | 1.73 | – | – | – | – | – | – | – |
| O=C(c1ccc(Cl)cc1)[C@H]1[C@@H]2c3ccccc3C=CN2[C@@H](C(=O)c2ccc(Cl)cc2)[C@@H]2c3ccccc3C=CN12 [Compound 96] | – | – | no inhibition | no inhibition | no inhibition | not under the postentry treatment | 10.4 ± 2.1 | 17 ± 3.7 | > 100 |
| O=C(c1ccccc1)[C@H]1[C@@H]2c3ccccc3C=CN2[C@@H](C(=O)c2ccccc2)[C@@H]2c3ccccc3C=CN12 [Compound 50] | – | – | no inhibition | no inhibition | no inhibition | not under the postentry treatment | 32.7 ± 8.9 | 26.5 ± 6.9 | > 100 |
